From patent US12486271B2, “Solid forms of a toll-like receptor modulator” (GILEAD SCIENCES, INC., priority 2014, dated 2025)

Columns and labels:
[1] = Variable temperature XRD (VT XRD) experiment: form stability on cooling; format: physicochemical; conditions: cooled to 25° C. after generation by heating
From the text: X-ray Powder Diffraction (XRPD). The Rigaku Smart-Lab® X-ray diffraction system was configured for reflection BraggBrentano geometry using a line source X-ray beam. The x-ray source is a Cu Long Fine Focus tube that was operated at 40 kV and 44 mA. That source provides an incident beam profile at the sample that changes from a narrow line at high angles to a broad rectangle at low angles. Beam conditioning slits were used on the line X-ray source to ensure that the maximum beam size is less than 10 mm both along the line and normal to the line. The Bragg-Brentano geometry is a para-focusing geometry controlled by passive divergence and receiving slits with the sample itself acting as the focusing component for the optics. The inherent resolution of Bragg-Brentano geometry is governed in part by the diffractometer radius and the width of the receiving slit used. Typically, the Rigaku Smart-Lab is operated to give peak widths of 0.1°2θ or less. The axial divergence of the X-ray beam is controlled by 5.0-degree Soller slits in both the incident and diffracted beam paths. Powder samples were prepared in a low background Si holder using light manual pressure to keep the sample surfaces flat and level with the reference surface of the sample holder. The single-crystal, Si, low-background holder has a small circular recess (7 mm diameter and about 1 mm depth) that holds between 5 and 10 mg of powdered material. Each sample was analyzed from 2 to 40°2θ using a continuous scan of 3°2θ per minute with an effective step size of 0.02°2θ. Form III was generated at 138° C. from Form I in a variable temperature XRD (VT XRD) experiment. […] Form III is characterized by the X-ray powder diffraction pattern in FIG. 9, and the differential scanning calorimetry plot in FIG. 11 showing endotherms at about 181 and 271° C. (decomposition). Form IV was generated between 95 and 110° C. from Form II in a variable temperature XRD experiment. […] is characterized by the X-ray powder diffraction pattern in FIG. 13.

[2] = Competition slurry experiment of Form I and Form III in methanol; format: physicochemical; conditions: 10 mg of each of Form I and Form III in methanol
HCV = conditions: once daily 7-day treatment, HCV infected patients; cited from earlier work

Row | SMILES | Solid form stability when cooled to 25° C. in variable temperature XRD [1] | Solid form stability when cooled to 25° C. in variable temperature XRD ([1]; listed as Compound I Form III) | Time for conversion of Form III back to Form I in competition slurry [2] [weeks] | Plasma virus concentrations (HCV)
1 | CCCCOc1nc(N)c2c(n1)N(Cc1cccc(CN3CCCC3)c1)CC(=O)N2 [Form III, 4-amino-2-butoxy-8-(3-(pyrrolidin-1-ylmethyl)benzyl)-7,8-dihydropteridin-6(5H)-one] | stable when cooled to 25 °C and does not convert back to Form I | remains as Form III | ≤ 2 | –
2 | CCCCOc1nc(N)c2c(n1)N(Cc1cccc(CN3CCCC3)c1)CC(=O)N2 [Form IV, 4-amino-2-butoxy-8-(3-(pyrrolidin-1-ylmethyl)benzyl)-7,8-dihydropteridin-6(5H)-one] | converts back to Form II when cooled to 25 °C | – | – | –
3 | Nc1nc(=O)c2sc(=O)n([C@@H]3O[C@H](CO)[C@@H](O)[C@H]3O)c2[nH]1 [isatoribine] | – | – | – | reduces plasma virus concentrations
